Data reported in ChEMBL document CHEMBL3351442, “Synthesis and antiproliferative evaluation of 2-hydroxylated (E)-stilbenes” (Bioorg Med Chem Lett, 2014).

Columns and labels:
Format in all cases: functional, cell-based
HT-29 = assay: Antiproliferative activity against human HT-29 cells by MTT assay
[1] = Antiproliferative activity against human MDA468 cells by MTT assay; conditions: MDA-MB-468
[2] = Antiproliferative activity against human COLO205 cells by MTT assay; conditions: COLO 205
MGC-803 = assay: Antiproliferative activity against human MGC803 cells by MTT assay

Row | SMILES | IC50 (HT-29) [µM] | IC50 (MGC-803) [µM] | IC50 [1] [µM] | IC50 [2] [µM]
1 | Oc1ccc(/C=C/c2ccccc2O)cc1 | 33.5 | – | – | –
2 | COc1ccc(/C=C/c2cccc(OC)c2O)cc1 | – | – | – | 20.2
3 | COc1cccc(/C=C\c2cc(OC)c(OC)c(OC)c2)c1O | – | 1.1 | 2.6 | –
4 | COc1ccc(/C=C/c2cc(OC)c(OC)c(OC)c2)c(O)c1 | 9.7 | 0.035 | 5.3 | 5.3
5 | COc1cccc(/C=C/c2ccc(O)cc2)c1O | – | – | 6.9 | –
6 | Oc1cc(O)cc(/C=C/c2ccccc2O)c1 | 26.2 | – | – | –
7 | COc1ccc(/C=C/c2cccc(OC)c2O)c(OC)c1 | – | – | 5.1 | –
8 | Cc1ccc(/C=C/c2ccccc2O)cc1 | 22.9 | – | 21.9 | –
9 | Oc1ccccc1/C=C/c1ccccc1 | – | – | 19.3 | –

Now from value to compound, other results behind:

Row | IC50 (HT-29) [µM] | IC50 (MGC-803) [µM] | SMILES | IC50 [1] [µM] | IC50 [2] [µM]
10 | 14.4 | – | Oc1ccccc1/C=C/c1ccc(Br)cc1 | 7.4 | 21.1
11 | 87.2 | 42 | Oc1ccc(/C=C/c2cc(O)cc(O)c2)cc1 [RESVERATROL] | 45.2 | 23.5
12 | – | 14.7 | COc1cc(/C=C/c2cc([N+](=O)[O-])ccc2O)cc(OC)c1OC | – | –
13 | 12.6 | 10.6 | COc1cc(/C=C/c2cc([N+](=O)[O-])ccc2O)cc(OC)c1 | – | –
14 | 26.7 | – | Oc1ccc(/C=C/c2cc(Br)ccc2O)cc1 | 3.5 | –
15 | 10 | 3.5 | COc1ccc(/C=C/c2cc(Br)ccc2O)c(OC)c1 | 3.7 | –
16 | – | 3.1 | N#Cc1ccc(/C=C/c2ccccc2O)cc1 | – | –
17 | 18.5 | 4.5 | COc1cc(/C=C/c2cc(Br)ccc2O)cc(OC)c1OC | 14.2 | –
18 | 26.2 | 6.3 | COc1cc(/C=C/c2ccccc2O)cc(OC)c1 | 12.6 | –
19 | 9.5 | 3.3 | COc1cc(/C=C/c2cc(Br)ccc2O)cc(OC)c1 | 6.1 | 16.4
20 | 13.3 | 5 | Cc1cc(C)cc(/C=C/c2cc(Br)ccc2O)c1 | 7.2 | –
